According to a melting point compilation (Tetko et al.; mined from patent text by program, amines drawn as free bases though some values may be those of a salt):

| SMILES | melting point |
| --- | --- |
| CCCCCC1CCC(CCc2ccc(-c3ncc(O)cn3)c(F)c2F)CC1 (stereo not given) | 157 °C |
| CCC1(CC)NC(=O)Oc2ccc(-c3cccc(Cl)c3)cc21 | 150 to 151 °C |
| N#Cc1c(Cl)nc2ccccc2c1Cl | 157 °C |
| CCc1c2c(nn1CC)c(N)nc1ncccc12 | 286 to 288 °C |
| CNCC(C)C1(c2ccccc2)C=CCC=C1 (stereo not given) | > 250 °C |
| CC(=O)OCC1OC(OS(=O)(=S)c2ccccc2)C(OC(C)=O)C(OC(C)=O)C1OC(C)=O (stereo not given) | 53 to 54 °C |
| O=c1[nH]c(-c2[nH]c3ccccc3c2Cl)no1 | 240 to 241 °C |
| Cc1nc(Nc2nc3ccccc3[nH]2)nc(O)c1CC(=O)O | > 300 °C |
| NC(=NCC(F)(F)F)Nc1cnn(-c2cccc(C(=O)NCCO)c2)n1 | 171 to 173 °C |
| COc1ccc2c(=O)c3c(Cl)ccc([N+](=O)[O-])c3oc2c1 | 211 to 213 °C |
| Cc1ccc(CN2CCC(c3cc(-c4ccc(Cl)cc4)[nH]n3)CC2)cc1 | 181 to 183 °C |
| O=C(O)CCC1(CCC(=O)O)CC(=O)c2ccc(OCCCOc3ccccc3)cc2O1 | 132 to 133 °C |
| N#CCCCNC(=O)c1nn(C2CCCCO2)cc1NC(=O)c1ccccn1 (stereo not given) | 155 to 157 °C |
| CC(C)(C)OC(=O)N1CCC(Cc2ccc(Cl)cc2)(C(=O)O)CC1 | 179 to 180 °C |
| CC(C)(C)C(=O)NCCCN(CCCNC(=O)C(C)(C)C)c1ccccc1 | 72 °C |
| CC(C)(C)OC(=O)N1CCN(c2cccc(Cl)c2C=O)CC1 | 100 to 103 °C |
| BrCCCCCc1nnnn1C1CCCCC1 | 57 to 59 °C |
| CC(C)(C)OC(=O)NCCC(=O)NC(CC(=O)OCc1ccccc1)c1ccccc1 (stereo not given) | 124 to 126 °C |
| CCOC(=O)CC(c1ccccc1)c1ccc(N2CCN(CCC3CCN(C(=O)OC(C)(C)C)CC3)C2=O)cc1 (stereo not given) | 100 to 102 °C |
| O=c1[nH]nc(Cc2ccncn2)c2ccccc12 | 204 to 206 °C |
| CN(C)c1ccc(NC(=O)CCn2c(-c3ccc(Cl)cc3)nc3cccnc32)cc1 | 216 to 218 °C |
| O=C(O)Cn1cccc(O)c1=O | 203 to 205 °C |
| CCOC(=O)CC(C(=O)c1ccc(Cl)cc1)C(=O)c1ccc(Cl)cc1 | 108 °C |
| COCCc1nc2c(N)nc3ccccc3c2n1CCOCCN(C)C(=O)N1CCOCC1 | 122 °C |
| CCn1cc(C(=O)NCc2ccc(Cl)cc2)c(=O)c2cc(I)sc21 | 214 to 218 °C |

| SMILES | melting point |
| --- | --- |
| C=CCc1cc(C(=O)c2ccccc2)c(O)cc1OCCCCC#N | 60 to 62 °C |
| N#CCC(C#N)S(=O)(=O)c1ccc(Cl)cc1 (stereo not given) | 130 to 137 °C |
| O=C(O)[C@H]1O[C@H](c2ccccc2Cl)c2cc(Cl)ccc2N(Cc2ccccc2)C1=O (relative stereo) | 177 °C |
| CCOC(=O)C=C(C)NC(=O)OCc1ccc(Cl)c(Cl)c1 | 83.5 to 85 °C |
| CC(=O)OC1CSC(Oc2cncc(-c3ccncc3Cl)c2)C(OC(C)=O)C1OC(C)=O (stereo not given) | 175 °C |
| CCOc1ccc(S(=O)(=O)N(CC(=O)NN=C2C(=O)Nc3ccccc32)c2ccccc2)cc1 | 136 °C |
| O=C1N(Cc2ccncn2)c2ccccc2C12COc1cc3c(cc12)CCO3 (stereo not given) | 158 to 160 °C |
| CC(C)(C)c1nnc(N=C=O)s1 | 261 to 263 °C |
| COc1ccc(C(=O)Nc2ccc(F)cc2)cc1NS(=O)(=O)c1cccc(C#N)c1 | 221 to 225 °C |
| CCOC(=O)CCc1ccc(OCC(=O)N(CC)CC)cc1Oc1ncc(C(F)(F)F)cc1Cl | 88.5 to 89 °C |
| O=C(NCCN1C=CC(c2ccccc2)=CC1)c1ccccc1S(=O)(=O)O | 272 to 274 °C |
| CC(C)(C)c1cc(C(=O)c2ccccc2)cc(CN2CCC(O)CC2)c1O | 156 to 157 °C |
| Cc1cc(-c2nnnn2C2CC2)ccc1N | 139 to 140 °C |
| CCCCCCC(O)CCCCCCCC(COC(C)=O)(COC(C)=O)NC(C)=O (stereo not given) | 82 to 84 °C |
| O=C(c1ccccc1)c1ccc(OCCCCCCBr)cc1 | 47 to 49 °C |
| CCN(C)C(=O)C1=CC(C)(C)Oc2ccc([N+](=O)[O-])cc21 | 121 to 124 °C |
| Cc1ccc(-c2nc3ccccc3[nH]2)cn1 | 266 °C |
| CCOC(=O)O[C@H](c1ccc(S(C)(=O)=O)cc1)[C@@H](CF)NC(=O)C(Cl)Cl | 110 to 112 °C |
| CCOc1nn(-c2ccc(C(F)(F)F)cn2)cc1CCCOc1cc(CCC(=O)O)n(C2CCCCC2)n1 | 89 to 90 °C |
| C=CCN1CCC(O)(c2cc(F)cc(F)c2)C1 (single isomer, unassigned; (-)) | 102 to 103 °C |
| O=CCN1C=C(C(=O)O)Cc2cc(F)c(F)c(F)c21 | 220 to 222 °C |
| NC(=O)C(c1ccccc1)(c1ccccc1)[C@@H]1CCNC1 | 128 to 132 °C |
| CCCCOC(=O)CNC(=O)c1nc2ccc(OC)cc2cc1OCc1ccccc1 | 90 to 92 °C |
| CCCCCCCCCC[C@H](O)c1ccc2ccccc2c1 | 53 to 54 °C |
| O=c1nc(N2CCCC(O)C2)sc2ncccc12 (stereo not given) | 208 to 211 °C |

| SMILES | melting point |
| --- | --- |
| CC(C)(C)OC(=O)NC(Cc1ccccc1)C1CC(Cc2ccccc2)=NO1 (stereo not given) | 106 to 107 °C |
| N#Cc1nn(-c2c(Cl)cc(C(F)(F)F)cc2Cl)c(N)c1-c1cccc(N)c1 | 187 °C |
| O=C(O)c1cn(-c2ccnc3ccccc23)cc1C1CC1 | 195 °C |
| CCCOc1ccccc1NC=C1C(=O)N(c2ccc(C(=O)O)cc2)N=C1C | 260 °C |
| COC(=O)[C@H](Cc1ccc([N+](=O)[O-])cc1)NC(=O)C1(CCCCS(C)(=O)=O)CCCC1 | 40 to 44 °C |
| CC(C)=CCN1Cc2c(Cl)ccc([N+](=O)[O-])c2NC[C@@H]1C | 60 to 62 °C |
| CSc1cc2c(cc1C(F)(F)F)N(C(=O)Nc1cccc(C(=O)NN3CCC(N(C)C)C3)c1)CC2 (stereo not given) | 114 to 116 °C |
| CCCCCCCCCCCCCCCCOCC(CO)OCCCCCCCCCCCCCC (stereo not given) | 42 to 43 °C |
| CC(=O)NS(=O)(=O)c1ccc2ccc(Oc3c(Cl)cc(C(F)(F)F)cc3Cl)cc2c1 | 137 °C |
| CCCCn1c(=O)n(CC=C(C)C)c(=O)c2c1ncn2S(=O)(=O)c1ccc(OC)c(OC)c1 | 92 to 95 °C |
| COc1cc2c(cc1Br)CC(C)NN=C2c1ccc([N+](=O)[O-])cc1 (stereo not given) | 172 to 174 °C |
| Cn1nnnc1S(=O)(=O)Cc1ccccc1 | 122 to 125 °C |
| Cc1nnc(N2N=C(c3ccc(Cl)cc3)c3cc4c(cc3C[C@H]2C)OCO4)s1 | 105 to 108 °C |
| CCOC(=O)c1nccn1C1Cc2ccccc2C1=O (stereo not given) | 116 °C |
| CCOc1cccc(CN2CCc3cc(O)ccc3C2)c1 | 120 to 121 °C |
| Cc1cnc(NC(=O)[C@H]2[C@H](c3ccccc3)C2(C)C)s1 (relative stereo) | 132 to 135 °C |
| Cc1ccccc1CNc1c2c(nc3ccccc13)CCCC2O (stereo not given) | 167 to 169 °C |
| CC(=O)O[C@H]1CS[C@H](COC(=O)c2ccccc2)O1 (relative stereo) | 67 to 68 °C |
| CCc1cc2c(cc1F)c(C#N)c(-c1ccc(S(=O)(=O)N[C@@H](C)C(F)(F)F)cn1)n2-c1ncccn1 | 195 to 198 °C |
| CC(C)OC(=O)Nc1ccc(NC(=O)CBr)c([N+](=O)[O-])c1 | 195 to 197 °C |
| CC(C)CC(=O)Nc1cccc(-c2ccnc3c(-c4cccs4)cnn23)c1 | 148 to 150 °C |
| C=CCSc1nc(N)nc2c1ncn2[C@@H]1C[C@H](CO)[C@@H](O)C1 | 133 to 134 °C |
| O=C(O)CCc1conc1-c1ccc(C(F)(F)F)cc1 | 173 to 174 °C |
| COC1C(N2CCCC2=O)c2sccc2OC1(C)C (stereo not given) | 117 to 118 °C |
| Nc1nc2ccccc2c2c1nc(CCCOc1ccccc1)n2CCCNC(=O)N1CCOCC1 | 199 to 200 °C |

| SMILES | melting point |
| --- | --- |
| CCOC(=O)c1cnc2n(c1=O)C(C)CCC2=NNC(=O)c1ccccc1 (stereo not given) | 209 to 210 °C |
| CCc1ccc(-c2ccc(C(=O)Nc3cc4ncc(CN5CCCC5)cc4cc3C)cc2)cc1 | 188 °C |
| CS(=O)(=O)c1ccc(-c2cc(F)c(F)cc2-c2ccc(F)cc2)cc1 | 148 °C |
| COCCNc1ccc2ncnc(Nc3ccc(F)cc3F)c2c1 | 175 to 176 °C |
| CCOC(=O)c1c(C)cc2nc(CO)n(-c3ccc4c(c3)OCO4)c(=O)c2c1C | 159 to 161 °C |
| CC(C)(Br)C(=O)OCCN1C(=O)c2ccccc2C1=O | 63 to 65 °C |
| COC(=O)c1c(Oc2nc(OC)cc(OC)n2)ccc2ncccc12 | 160 to 162 °C |
| COc1ccc(C2=C(c3ccc(O)cc3)CCCc3cc(O)ccc32)cc1 | 250 to 252 °C |
| O=Cc1c(F)cccc1N1CCN(Cc2ccccc2)CC1 | 94 to 95 °C |
| Cn1c(=O)n(S(=O)(=O)c2ccc(Cl)cc2)c(=O)c2ccc(Cl)cc21 | 205 to 208 °C |
| CC(=O)c1ccc(C#CCOC2CCC3C4CCC5CC(C)(O)CCC5(C)C4CCC23C)cc1 (stereo not given) | 52 to 55 °C |
| CCc1cc2oc(=O)c(C#N)c(C)c2cc1CC | 169 °C |
| Cc1nnsc1C(=O)Nc1ccc(-n2nc(C(F)(F)F)cc2C(F)(F)F)c(C(F)(F)F)c1 | 134 to 136 °C |
| CC(C)(C)c1ccc(-c2nc3ccc(C(=O)O)cc3[nH]2)cc1 | 212 °C |
| CC(=O)c1c(C)[nH]c(CCN)c1C | 106 to 108 °C |
| COCCOc1ccc(CCCNS(=O)(=O)c2ccc(Cl)cc2)c(Oc2ncc(C(F)(F)F)cc2Cl)c1 | 111 to 113 °C |
| CC(=O)Nc1cc(Cn2c(C(=O)c3cc(C)cc(Cl)c3)c(C(C)C)c(=O)[nH]c2=O)ccn1 | 241 to 243 °C |
| Cc1n[nH]c(C)c1C(=O)Nc1ccccc1 | 244 to 245 °C |
| CCOC(=O)C(=CNNc1c(Cl)cc(Cl)cc1Cl)C(=O)OCC | 92 °C |
| CC(=O)Nc1nc(CCc2ccc(NC3=NCCN3)cc2)c(Cc2ccc(S(C)(=O)=O)cc2)s1 | 139 to 140 °C |
| CC(C)n1nc(-c2cc(C(N)=O)cnc2-c2ccccc2)ccc1=O | 229 to 230 °C |
| CCc1nc2cc(F)ccc2n1C1CC2CCC(C1)N2CCCSc1ccc(F)cc1 (stereo not given) | 127 to 128 °C |
| OCc1cc2ccccc2c(-c2ccnc(Br)c2)c1CO | 108 to 109 °C |
| CN(CCCOc1ccc(C=C2SC(=O)NC2=O)cc1)c1nc2ccccc2o1 | 202 to 204 °C |
| CC(=O)Nc1ncc(Sc2ccc(O)cc2)s1 | 265 to 267 °C |
